Assay [1] has as its system MCF7 human ER+ breast tumors. In words: MCF7 ER+ breast tumors in athymic mice, with tamoxifen. It counts as in vivo, mouse. The note with it: 5 weeks.
Procedure: The mammary fat pads of athymic mice were injected with MCF7 human ER+ cells (1×10^6 cells) and tumor growth was measured every third day using a caliper.
The 4th inguinal mammary pads of athymic mice (female, 15-20 g, 5-6 weeks of age) were injected with 1×10^6 actively growing ZR-75-1 or MCF7 human ER+ breast cancer cells. The mice were group housed in cages with HEPA-filtered air on 12-h light/dark cycles and were fed regular rat chow ad libitum. Tumor size was measured twice a week in conscious animals, using a caliper, and tumor volume was calculated using the formula for a semi-ellipsoid (4/3πr^3)/2)]. […] After 7 weeks of treatment for the mice containing ZR-75-1 human ER+ breast tumors or 5 weeks of treatment for the mice containing MCF7 ER+ breast tumors, the mice were sacrificed and the tumors were removed and weighed.
Assay [2] has as its system ZR-75-1 human ER+ breast tumors. In words: ZR-75-1 ER+ breast tumors in athymic mice, with tamoxifen. It counts as in vivo, mouse. To be noted: 7 weeks.
Procedure: The mammary fat pads of athymic mice were injected with ZR-75-1 ER+ cells (1×10^6 cells), and tumor growth was measured every third day using a caliper.
Sections were incubated with an antibody to Ki67, a marker of proliferation.
The 4th inguinal mammary pads of athymic mice (female, 15-20 g, 5-6 weeks of age) were injected with 1×10^6 actively growing ZR-75-1 or MCF7 human ER+ breast cancer cells. […] Tumor size was measured twice a week in conscious animals, using a caliper, and tumor volume was calculated using the formula for a semi-ellipsoid (4/3πr^3)/2)]. […] After 7 weeks of treatment for the mice containing ZR-75-1 human ER+ breast tumors or 5 weeks of treatment for the mice containing MCF7 ER+ breast tumors, the mice were sacrificed and the tumors were removed and weighed.
Assay [3] has as its system angiotensin II (Ang II)-induced hypertension. In words: Ang II-induced hypertension and cardiac damage in rats. The class given is in vivo, rat. To be noted: Ang II alone 24 μg/kg/h via osmotic mini-pump, at 4 weeks (from 120.4±2.4). The procedure: The effect of p-MGE on hypertension and hypertension-induced cardiac damage was measured in rats with angiotensin II (Ang II)-induced hypertension. Sprague-Dawley rats (male, 8-12 weeks of age) were treated for 4 weeks with regular drinking water (Control), p-MGE alone (0.2 mg/mL of total phenolics in their drinking water), Ang II alone (24 μg/kg/h via implanted osmotic mini-pump) or p-MGE and Ang II. For a 250 g rat, this amount of p-MGE corresponds to approximately 20 mg phenolics/kg/day. Administration of p-MGE was initiated 1 week prior to treatment with Ang II. Blood pressure was recorded weekly by tail-cuff plethysmography, at the same time of day by the same individual. […] Scans to quantify cardiac parameters were taken in M mode parasternal short axis view at mid-papillary level, Tissue Doppler in 4 chamber view at the mitral annulus, and pulse wave Doppler in 4 chamber view to measure transmitral inflow. The ejection fraction of the heart and fractional shortening were measured in M mode parasternal short axis view at the mid-papillary level, using the VisualSonics Vevo 2100 High-Resolution Imaging System, as a measure of systolic function. […] Diastolic function was measured as e′, to assess the relaxation of the left ventricle, and E/e′, to assess the filling pressure of the left ventricle. […]

Where [4] appears, read: p-MGE 0.1 mg phenolics/mL drinking water, tamoxifen ~32 mg/kg/d in chow, or both.
[5] abbreviates: p-MGE 0.1 mg phenolics/mL, tamoxifen ~32 mg/kg/d, or both.

Entries after “also recorded” stand apart in the source; their conditions may differ.

Regarding `CC/C(=C(\c1ccccc1)c1ccc(OCCN(C)C)cc1)c1ccccc1` [tamoxifen], the “tumor volume / growth” value in assay [1] (setting [4]) and in assay [2] (setting [4]) was “reduced the growth of both ER+ tumors; also recorded: also reduced tumor size” in each case. The tumor weight result in assay [1] (setting [5]) and in assay [2] (setting [5]) was “also reduced tumor weight” each time. Besides, in assay [2] (setting [5]), the “Ki67 positive cells in tumor sections” value was “associated with a reduction in the number of cells which were positive for the proliferation marker Ki67; also recorded: also significantly reduced proliferation”.
Turning to “angiotensin II (DRVYIHPF; Angiotensin-2; UniProt P01015 25-32, looked up) [Ang II, used to induce hypertension in rats]”, the “systolic blood pressure (tail cuff)” value in assay [3] stood at 213.1±6.8 mm Hg.

These data come from US11576944B2, “Grape extracts and methods relating thereto” (priority 2016, dated 2023).
